# Reference: patent US20030148963A1 (priority 2000, published 2003)
# “And” between values parts separate entries of the source, which are not always exact repeats. Equal entries are not always repeated. Where two headings read alike, the source gives them in different places. Marks after values point to notes of the source that are not given here.
# Assays:
# IL-6 [1] = format: cell-based, NMRI mice; conditions: 24 h supernatant
# [2] = tested on: peripheral blood leukocytes; assay: Hematological analyses during S. aureus infection; format: in vivo, NMRI mice
# Method: Hematological Analyses Mice were bled from the tail into heparinized tubes on days −3, −1, 3, and 6-7 after bacterial inoculation. The leukocytes were counted in a hemacytometer (Toa Medical Electronics, Kobe, Japan). Fifty microliters of the heparinized blood was analysed in a FACScan cytometer (Becton Dickinson, San Jose, Calif.) to determine the percentages of lymphocytes, granulocytes, and monocytes, respectively. The absolute numbers of different leukocyte subsets were then calculated from the total leukocyte counts.
# [3] = tested on: T cell mediated DTH reaction; assay: Delayed type hypersensitivity to oxazolone (ear swelling); format: in vivo, mice; conditions: 12.5 mg/kg two days, the day before and 1 h before challenge; 24 h; similar to controls
# [4] = tested on: collagen induced arthritis (CIA); assay: Collagen induced arthritis, histopathological examination of joints; format: in vivo, B10.QxDBA/1 female mice
# Method: Histopathological examination was performed after routine fixation, decalcification, paraffin embedding, and staining with hematoxylin and eosin. All the slides were coded and the joints were studied with regard to synovial hypertrophy (defined as a synovial membrane thickness of more than two cell layers), pannus formation (synovial tissue overlaying the joint cartilage), and cartilage and bone destruction (loss of tissue integrity with resulting ingrowth of fibrotic tissue) (11). The severity of synovial hypertrophy and cartilage/bone destruction was scored from 0 (intact synovial, cartilage/bone tissue) to 3 (intense synovitis with total destruction of cartilage and/or bone).
# immunoglobulins = assay: Serum total immunoglobulins (single radial immunodiffusion); format: in vivo, B10.QxDBA/1 female mice; conditions: serum at end of experiment, mean ± SEM
# Method: Serum levels of immunoglobulins were measured by the single radial immunodiffusion technique (12). Antiserum was purchased from Dako (Dako A/S, Denmark) and mouse immunoglobulin standards were obtained from Sigma (Sigma Chemical Co., St. Louis, Mo.).
# IL-6 [5] = assay: Serum IL-6 in CII immunized mice (B9 bioassay); format: in vivo, B10.QxDBA/1 female mice; conditions: serum at end of experiment, mean ± SEM
# Method: For quantification of serfu CII antibodies, 96-well plates (Nunc, Roskilde, Denmark) were coated overnight at 4° C. with 10 μg/ml of native CII. Standards and samples were diluted in 0.5% BSA-PBS. Biotinylated F(ab/)2 fragments of goat anti-mouse IgG (Jackson ImmunoResearch Laboratories, West Grove, Pa.) was used as secondary antibody. Development was performed using horseradish peroxidase 0.5 μg/ml and 2.5 mg of the enzyme substrate 2,2-azino-bis-(3-ethylbenzothiazoline sulfonic acid) (Sigma) per mal in citrate buffer (pH 4.2), containing 0.0075% H2O2. The absorbance was measured at 405 nm in a SPECTRAmax spectrophotometer (Molecular Devices, Calif.). IFN-γ levels in sera were quantified with an ELISA system previously described (13). Ninety-six well plates (Nunc) were coated with 2 μg/ml of rat anti-mouse IFN-γ mab (Pharmingen, San Diego, Calif.). Sera, recombinant IFN-γ (Genzyme, Cambridge, Mass.), biotinylated antibodies were all diluted in 0.05 M Tris pH 7.4+0.015 M NaCl. A biotinylated anti mouse IFN-γ antibody (2 μg/ml) (Pharmigen) was used as secondary antibody. After incubation with extravidin alkaline phosphatase 0.5 ?g/ml and alkaline phosphatase substrate 1 mg/ml (Sigma) the absorbance was measured at 405 nm. Interleukin 6 (IL-6) levels in serum and supernatants were measured by a bioassay using cell line B13.29, subclone B9, which is dependent on IL-6 for growth. […]
# [6] = tested on: draining lymph node cells; assay: Draining lymph node response after CII immunization; format: in vivo, mice
# spleen mononuclear cells = format: cell-based; conditions: spleen cells of mice given 12.5 mg/kg 4 days a week for 4 weeks
# MIP-1α = MIP-1α release by IC-21 macrophage cell line; format: cell-based, murine
# Method: Levels of TNF, IL-1b, RANTES, and macrophage inflammatory protein (MIP)-1α were determined using sandwich ELISA from R&D Systems (Minneapolis, Minn.).
# These cells display many typical features of the macrophage phenotype and are therefore a suitable model for studying cytoline and chemokine release during inflammation (16). The cells were maintained in continous culture using RPMI-1640 supplemented with 10% FCS, L-glutamine, and gentamycin. When the cells had grown to about 70% confluency, they were seeded into a 24-well-plate (Nunc) at a concentration of 1×10^5 per well and incubated at 37° C. in 5% CO2 for 24 h. […] After 24 h of incubation, the cells were washed once with PBS, and reincubated with medium containing different concentrations (1, 10, 100, 1000 ng/ml) of LPS (Difco) and IFN-γ (10, 50, 100 u/nml). The interferon-γ was purified from the supernatants from Chinese hanater ovary (CHO) cells transfected with the murine IFN-γ gene (hybridoma kindly provided by Dr. Morris, Department of Biological Sciences, University of Warwick, Coventry, UK). After 2 and 24 h of incubation the supernatants were collected and stored at −20° C. until analysis.
# [7] = etoposide 1 μM, mean ± SEM, four mice
# [8] = Etoposide pretreated, n 16, day 61
# [9] = Etoposide treated (from day 40), n 17, day 61, mean ± SEM
# [10] = Etoposide-treated (from day 40)
smiles,measurement,setting,value
COc1cc([C@@H]2c3cc4c(cc3[C@@H](O[C@@H]3O[C@@H]5CO[C@@H](C)O[C@H]5[C@H](O)[C@H]3O)[C@H]3COC(=O)[C@H]23)OCO4)cc(OC)c1O [Etoposide],"IL-6, ConA stimulated",IL-6 [1]; [7],825 ± 455 pg/mL
same,"IL-6, TSST-1 stimulated",IL-6 [1]; [7],45 ± 16b pg/ml
same,"IL-6, ConA stimulated",IL-6 [1]; etoposide 10 μM,<10^b pg/ml
same,"IL-6, TSST-1 stimulated",IL-6 [1]; etoposide 10 μM,<10^b pg/ml
same,"IL-6, ConA stimulated",IL-6 [1]; etoposide 100 μM,<10^b pg/ml
same,"IL-6, TSST-1 stimulated",IL-6 [1]; etoposide 100 μM,<10^b pg/ml
same,Numbers of lymphocytes,[2]; day prior to bacterial inoculation,5.6±0.4 ×10^6/ml
same,Numbers of granulocytes,[2]; day −1,1.3±0.2 ×10^6/ml
same,Levels of circulating monocytes,"[2]; etoposide from three days prior to S. aureus inoculation, FIG. 4",significantly decreased
same,Numbers of lymphocytes,[2]; seven days after infection,0.8±0.2 ×10^6/ml
same,Numbers of granulocytes,[2]; seven days after the inoculation,1.6±0.4 ×10^6/ml
same,DTH reaction to oxazolone (ear thickness increase),[3],32±6 ×10^−3 cm
same,Cartilage/bone destruction score,[4]; [8],0
same,Synovial hypertrophy score,[4]; [8],0
same,Cartilage/bone destruction score,[4]; [9],4.5 ± 2.4
same,Synovial hypertrophy score,[4]; [9],2.4 ± 1.1
same,Total immunoglobulin levels,immunoglobulins; Etoposide-pretreated,9.2±0.5 mg/ml and 9.2 ± 0.5a mg/ml
same,Total immunoglobulin levels,immunoglobulins; [10],8.5±0.7 mg/ml and 8.5 ± 0.8^a mg/ml
same,IL-6,IL-6 [5]; Etoposide-pretreated,117 ± 21a pg/ml
same,IL-6,IL-6 [5]; [10],179 ± 21^b pg/ml
same,"Numbers of B cells, T cells, macrophages and germinal centers in inguinal lymph nodes","[6]; 10 days after CII immunization, immunohistochemical stainings",no significant effects on numbers
same,Antibodies to CII in lymph node cell cultures,"[6]; lymph node cells challenged in vitro with CII, vs PBS controls",not produced at all
same,"T cell functions (proliferation, IFN-γ secretion) of lymph node cells","[6]; lymph node cells challenged in vitro with CII, data not shown",no difference in T cell functions
same,"Counts per minute (CPM), TSST-1",spleen mononuclear cells; first value of merged cell,1117 ± 26 CPM
same,"Counts per minute (CPM), Con A","spleen mononuclear cells; mean ± SEM, 4 mice",2183 ± 214^a) CPM
same,"Counts per minute (CPM), 0 (unstimulated)",spleen mononuclear cells; second value of merged cell,156 ± 9 CPM
same,Levels of MIP-1α in supernatants,"MIP-1α; etoposide 0.01 μM 24 h, then IFN-γ 0 u/ml 24 h",5700 pg/mL
same,Levels of MIP-1α in supernatants,"MIP-1α; etoposide 0.01 μM 24 h, then IFN-γ 10 u/ml 24 h",4200 pg/mL
same,Levels of MIP-1α in supernatants,"MIP-1α; etoposide 0.01 μM 24 h, then IFN-γ 50 u/ml 24 h",1075 pg/mL
same,Levels of MIP-1α in supernatants,"MIP-1α; etoposide 0.01 μM 24 h, then IFN-γ 100 u/ml 24 h",800 pg/mL
same,Levels of MIP-1α in supernatants,"MIP-1α; etoposide 0.1 μM 24 h, then IFN-γ 0 u/ml 24 h",3400 pg/mL
same,Levels of MIP-1α in supernatants,"MIP-1α; etoposide 0.1 μM 24 h, then IFN-γ 10 u/ml 24 h",1950 pg/mL
same,Levels of MIP-1α in supernatants,"MIP-1α; etoposide 0.1 μM 24 h, then IFN-γ 50 u/ml 24 h",900 pg/mL
same,Levels of MIP-1α in supernatants,"MIP-1α; etoposide 0.1 μM 24 h, then IFN-γ 100 u/ml 24 h",488 pg/mL
